According to patent US20260356819A1, “OXOISOINDOLINYL-SUBSTITUTED […] DERIVATIVE AND USE THEREOF” (GLUETACS THERAPEUTICS (SHANGHAI) CO., LTD., priority 2023, published 2026):

Columns and labels:
Format in all cases: cell-based
Conditions in all cases: compounds at 50 nM and 500 nM
WEE1 = target: T1, WEE1 (Homo sapiens, UniProt P30291+Q96SW2); assay: Western blot degradation of WEE1 in hPBMCs (24 h)
T1 construct: The supernatant was aspirated as the extracted total cell protein; endogenous in cells; host or cells: human peripheral blood mononuclear cells (hPBMCs)
T1 sequence (P30291 whole entry): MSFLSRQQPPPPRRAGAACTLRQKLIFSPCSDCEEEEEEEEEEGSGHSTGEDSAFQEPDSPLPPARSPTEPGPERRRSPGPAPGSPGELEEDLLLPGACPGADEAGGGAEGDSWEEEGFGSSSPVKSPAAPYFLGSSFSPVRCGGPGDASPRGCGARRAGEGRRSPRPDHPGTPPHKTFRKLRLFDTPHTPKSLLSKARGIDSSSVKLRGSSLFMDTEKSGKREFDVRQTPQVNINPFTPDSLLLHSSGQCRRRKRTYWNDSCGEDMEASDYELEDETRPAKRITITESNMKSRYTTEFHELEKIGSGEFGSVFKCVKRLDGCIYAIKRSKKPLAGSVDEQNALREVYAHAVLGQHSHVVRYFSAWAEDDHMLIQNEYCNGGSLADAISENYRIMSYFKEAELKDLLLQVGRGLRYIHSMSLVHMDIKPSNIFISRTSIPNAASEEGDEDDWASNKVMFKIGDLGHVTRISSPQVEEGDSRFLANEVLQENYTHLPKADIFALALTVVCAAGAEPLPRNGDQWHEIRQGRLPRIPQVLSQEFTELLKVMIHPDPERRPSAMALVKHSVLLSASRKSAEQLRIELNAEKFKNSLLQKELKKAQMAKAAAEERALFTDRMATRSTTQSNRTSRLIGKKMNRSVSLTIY
T1 sequence (Q96SW2 whole entry): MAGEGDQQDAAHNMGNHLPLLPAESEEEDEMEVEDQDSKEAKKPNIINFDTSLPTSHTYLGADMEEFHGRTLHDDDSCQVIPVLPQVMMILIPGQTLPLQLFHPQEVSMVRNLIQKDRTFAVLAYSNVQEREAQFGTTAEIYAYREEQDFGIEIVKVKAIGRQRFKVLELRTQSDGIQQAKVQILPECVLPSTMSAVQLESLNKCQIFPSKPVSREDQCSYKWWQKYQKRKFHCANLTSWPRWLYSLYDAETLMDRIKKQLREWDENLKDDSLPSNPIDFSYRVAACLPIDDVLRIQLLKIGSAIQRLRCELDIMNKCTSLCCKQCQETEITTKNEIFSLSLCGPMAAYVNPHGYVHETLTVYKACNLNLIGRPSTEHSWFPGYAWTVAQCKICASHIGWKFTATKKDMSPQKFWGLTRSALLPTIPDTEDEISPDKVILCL
T1 sequence (Q16531 whole entry partner): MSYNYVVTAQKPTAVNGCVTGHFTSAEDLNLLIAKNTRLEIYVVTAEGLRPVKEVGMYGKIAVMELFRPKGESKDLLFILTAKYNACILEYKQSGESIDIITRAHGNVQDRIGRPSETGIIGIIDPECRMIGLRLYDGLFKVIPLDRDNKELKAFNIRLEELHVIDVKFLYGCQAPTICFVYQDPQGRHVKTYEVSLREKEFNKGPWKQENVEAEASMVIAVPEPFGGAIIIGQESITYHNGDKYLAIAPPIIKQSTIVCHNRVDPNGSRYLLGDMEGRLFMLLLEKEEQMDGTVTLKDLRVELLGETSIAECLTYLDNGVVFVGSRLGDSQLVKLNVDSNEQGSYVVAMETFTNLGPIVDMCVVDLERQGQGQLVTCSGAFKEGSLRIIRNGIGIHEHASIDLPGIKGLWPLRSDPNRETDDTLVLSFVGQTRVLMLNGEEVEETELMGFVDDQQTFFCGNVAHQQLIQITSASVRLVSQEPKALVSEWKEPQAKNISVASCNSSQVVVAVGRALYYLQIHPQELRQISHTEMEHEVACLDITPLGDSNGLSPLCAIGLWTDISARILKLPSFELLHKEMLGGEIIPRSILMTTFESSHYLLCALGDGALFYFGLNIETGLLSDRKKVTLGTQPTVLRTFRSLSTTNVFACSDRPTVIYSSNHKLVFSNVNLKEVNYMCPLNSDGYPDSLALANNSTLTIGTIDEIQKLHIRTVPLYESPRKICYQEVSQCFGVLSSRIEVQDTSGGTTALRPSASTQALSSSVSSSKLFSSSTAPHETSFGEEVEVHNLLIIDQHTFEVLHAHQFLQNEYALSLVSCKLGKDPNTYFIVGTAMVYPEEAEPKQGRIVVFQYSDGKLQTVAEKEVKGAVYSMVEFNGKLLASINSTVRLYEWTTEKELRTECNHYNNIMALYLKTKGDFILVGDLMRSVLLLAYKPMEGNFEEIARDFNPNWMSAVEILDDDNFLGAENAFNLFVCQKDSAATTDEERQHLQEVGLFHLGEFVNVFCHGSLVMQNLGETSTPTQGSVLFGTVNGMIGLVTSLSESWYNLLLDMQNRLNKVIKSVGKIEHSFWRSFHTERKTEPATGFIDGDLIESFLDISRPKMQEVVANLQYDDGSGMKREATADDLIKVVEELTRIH
How it was run: (§1)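 Read-out is Western blot band grayscale, divided by internal control band and normalised to give percent target protein remaining; degradation rate is 1 minus that value. Cells were human PBMCs exposed to compound at 50 nM and 500 nM for 24 hours.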

IKZF1 = target: T2, IKZF1 (Homo sapiens, UniProt Q13422+Q96SW2); assay: Western blot degradation of IKZF1 in hPBMCs (24 h)
T2 construct: The supernatant was aspirated as the extracted total cell protein; endogenous in cells; host or cells: human peripheral blood mononuclear cells (hPBMCs)
T2 sequence (Q13422 whole entry): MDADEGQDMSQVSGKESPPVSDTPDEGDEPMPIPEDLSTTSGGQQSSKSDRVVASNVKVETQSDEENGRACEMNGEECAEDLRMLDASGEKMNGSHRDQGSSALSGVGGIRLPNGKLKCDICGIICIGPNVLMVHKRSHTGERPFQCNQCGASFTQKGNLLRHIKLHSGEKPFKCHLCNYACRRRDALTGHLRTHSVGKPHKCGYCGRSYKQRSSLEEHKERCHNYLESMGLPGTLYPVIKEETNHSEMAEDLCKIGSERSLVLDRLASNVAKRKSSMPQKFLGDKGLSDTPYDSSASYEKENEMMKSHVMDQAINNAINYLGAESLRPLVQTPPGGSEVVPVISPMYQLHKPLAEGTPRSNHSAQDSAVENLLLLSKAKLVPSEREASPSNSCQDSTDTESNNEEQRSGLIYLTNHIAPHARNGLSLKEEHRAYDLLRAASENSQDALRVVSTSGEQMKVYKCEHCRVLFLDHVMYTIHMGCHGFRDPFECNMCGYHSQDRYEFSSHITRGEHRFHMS
T2 sequence (Q96SW2 whole entry): as the sequence (Q96SW2 whole entry) above
T2 sequence (Q16531 whole entry partner): as the sequence (Q16531 whole entry partner) above
How it was run: as §1

IKZF2 = target: T3, IKZF2 (Homo sapiens, UniProt Q96SW2+Q9UKS7); assay: Western blot degradation of IKZF2 in hPBMCs (24 h)
T3 construct: The supernatant was aspirated as the extracted total cell protein; endogenous in cells; host or cells: human peripheral blood mononuclear cells (hPBMCs)
T3 sequence (Q9UKS7 whole entry): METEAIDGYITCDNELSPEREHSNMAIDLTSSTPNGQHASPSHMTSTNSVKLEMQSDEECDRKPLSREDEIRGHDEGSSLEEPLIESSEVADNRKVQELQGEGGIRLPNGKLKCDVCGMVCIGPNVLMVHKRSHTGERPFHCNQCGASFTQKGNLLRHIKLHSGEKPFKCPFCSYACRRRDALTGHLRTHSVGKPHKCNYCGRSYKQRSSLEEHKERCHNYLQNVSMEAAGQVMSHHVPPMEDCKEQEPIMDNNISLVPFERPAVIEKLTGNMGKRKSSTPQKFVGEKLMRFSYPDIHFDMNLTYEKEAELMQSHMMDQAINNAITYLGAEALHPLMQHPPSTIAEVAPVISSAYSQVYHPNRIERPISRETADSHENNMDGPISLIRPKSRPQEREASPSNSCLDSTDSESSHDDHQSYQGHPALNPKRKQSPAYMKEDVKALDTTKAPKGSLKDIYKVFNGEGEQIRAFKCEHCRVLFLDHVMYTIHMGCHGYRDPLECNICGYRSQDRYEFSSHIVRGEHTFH
T3 sequence (Q96SW2 whole entry): as the sequence (Q96SW2 whole entry) above
T3 sequence (Q16531 whole entry partner): as the sequence (Q16531 whole entry partner) above
How it was run: as §1

CK1α = target: T4, CK1α (Homo sapiens, UniProt P48729+Q96SW2); assay: Western blot degradation of CK1α in hPBMCs (24 h)
T4 construct: The supernatant was aspirated as the extracted total cell protein; endogenous in cells; host or cells: human peripheral blood mononuclear cells (hPBMCs)
T4 sequence (P48729 whole entry): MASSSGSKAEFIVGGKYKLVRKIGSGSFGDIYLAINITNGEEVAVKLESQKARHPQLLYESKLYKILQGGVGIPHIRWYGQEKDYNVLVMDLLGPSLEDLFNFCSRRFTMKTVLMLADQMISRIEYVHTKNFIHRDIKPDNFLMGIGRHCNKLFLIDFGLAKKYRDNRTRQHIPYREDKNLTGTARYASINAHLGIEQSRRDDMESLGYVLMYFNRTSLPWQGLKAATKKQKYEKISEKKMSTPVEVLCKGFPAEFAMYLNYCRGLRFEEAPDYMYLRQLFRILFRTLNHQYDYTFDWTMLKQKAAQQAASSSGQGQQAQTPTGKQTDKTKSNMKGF
T4 sequence (Q96SW2 whole entry): as the sequence (Q96SW2 whole entry) above
T4 sequence (Q16531 whole entry partner): as the sequence (Q16531 whole entry partner) above
How it was run: as §1

IKZF3 = target: T5, IKZF3 (Homo sapiens, UniProt Q96SW2+Q9UKT9); assay: Western blot degradation of IKZF3 in hPBMCs (24 h)
T5 construct: The supernatant was aspirated as the extracted total cell protein; endogenous in cells; host or cells: human peripheral blood mononuclear cells (hPBMCs)
How it was run: as §1

GSPT1 = target: T6, GSPT1 (Homo sapiens, UniProt P15170+Q96SW2); assay: Western blot degradation of GSPT1 in hPBMCs (24 h)
T6 construct: The supernatant was aspirated as the extracted total cell protein; endogenous in cells; host or cells: human peripheral blood mononuclear cells (hPBMCs)
T6 sequence (P15170 whole entry): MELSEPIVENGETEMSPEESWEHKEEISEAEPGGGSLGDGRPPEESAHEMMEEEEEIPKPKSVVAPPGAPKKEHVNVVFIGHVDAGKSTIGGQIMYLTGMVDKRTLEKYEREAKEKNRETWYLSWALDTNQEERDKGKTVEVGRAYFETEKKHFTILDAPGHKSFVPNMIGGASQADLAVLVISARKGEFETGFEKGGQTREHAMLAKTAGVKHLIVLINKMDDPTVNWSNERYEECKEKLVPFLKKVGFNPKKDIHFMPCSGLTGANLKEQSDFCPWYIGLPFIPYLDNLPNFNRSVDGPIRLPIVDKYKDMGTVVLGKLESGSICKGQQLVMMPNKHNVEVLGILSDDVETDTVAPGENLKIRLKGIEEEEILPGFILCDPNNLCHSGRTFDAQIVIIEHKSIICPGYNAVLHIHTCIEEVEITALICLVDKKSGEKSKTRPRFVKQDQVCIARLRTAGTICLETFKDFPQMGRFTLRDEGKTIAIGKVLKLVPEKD
T6 sequence (Q96SW2 whole entry): as the sequence (Q96SW2 whole entry) above
T6 sequence (Q16531 whole entry partner): as the sequence (Q16531 whole entry partner) above
How it was run: as §1

Structure (SMILES) | WEE1 substrate protein remaining % (WEE1) | IKZF1 substrate protein remaining % (IKZF1) | IKZF2 substrate protein remaining % (IKZF2) | CK1α substrate protein remaining % (CK1α) | IKZF3 substrate protein remaining % (IKZF3) | GSPT1 substrate protein remaining % (GSPT1)
O=C1CCN(N2C(=O)c3ccc(CN4C5CCC4CN(C(c4ccccc4)c4ccccc4)C5)cc3C2=O)C(=O)N1 [GT-06455, 5-((3-benzhydryl-3,8-diazabicyclo[3.2.1]octan-8-yl)methyl)-2-(2,4-dioxotetrahydropyrimidin-1(2H)-yl)isoindoline-1,3-dione] | A (0% ≤ substrate protein remaining % ≤80%) | B (80%< substrate protein remaining % ≤100%) | B (80%< substrate protein remaining % ≤100%) | B (80%< substrate protein remaining % ≤100%) | B (80%< substrate protein remaining % ≤100%) | B (80%< substrate protein remaining % ≤100%)
CC1(C)CCC(CN2CC3CC(C2)N3Cc2ccc3c(c2)C(=O)N(N2CCC(=O)NC2=O)C3=O)=C(c2ccc(Cl)cc2)C1 [GT-06457, 5-((3-((4′-chloro-5,5-dimethyl-3,4,5,6-tetrahydro-[1,1′-biphenyl]-2-yl)methyl)-3,6-diazabicyclo[3.1.1]heptan-6-yl)methyl)-2-(2,4-dioxotetrahydropyrimidin-1(2H)-yl)isoindoline-1,3-dione] | A (0% ≤ substrate protein remaining % ≤80%) | A (0% ≤ substrate protein remaining % ≤80%) | A (0% ≤ substrate protein remaining % ≤80%) | A (0% ≤ substrate protein remaining % ≤80%) | A (0% ≤ substrate protein remaining % ≤80%) | A (0% ≤ substrate protein remaining % ≤80%)
CC1(C)CCC(CN2C3CC2CN(Cc2ccc4c(c2)CN(N2CCC(=O)NC2=O)C4=O)C3)=C(c2ccc(Cl)cc2)C1 [GT-06458, 1-(5-((6-((4′-chloro-5,5-dimethyl-3,4,5,6-tetrahydro-[1,1′-biphenyl]-2-yl)methyl)-3,6-diazabicyclo[3.1.1]heptan-3-yl)methyl)-1-oxoisoindolin-2-yl)dihydropyrimidine-2,4(1H,3H)-dione] | A (0% ≤ substrate protein remaining % ≤80%) | A (0% ≤ substrate protein remaining % ≤80%) | A (0% ≤ substrate protein remaining % ≤80%) | A (0% ≤ substrate protein remaining % ≤80%) | A (0% ≤ substrate protein remaining % ≤80%) | A (0% ≤ substrate protein remaining % ≤80%)
CC1(C)CCC(CN2C3CC2CN(Cc2ccc4c(c2)C(=O)N(N2CCC(=O)NC2=O)C4=O)C3)=C(c2ccc(Cl)cc2)C1 [GT-06459, 5-((6-((4′-chloro-5,5-dimethyl-3,4,5,6-tetrahydro-[1,1′-biphenyl]-2-yl)methyl)-3,6-diazabicyclo[3.1.1]heptan-3-yl)methyl)-2-(2,4-dioxotetrahydropyrimidin-1(2H)-yl)isoindoline-1,3-dione] | A (0% ≤ substrate protein remaining % ≤80%) | A (0% ≤ substrate protein remaining % ≤80%) | A (0% ≤ substrate protein remaining % ≤80%) | A (0% ≤ substrate protein remaining % ≤80%) | A (0% ≤ substrate protein remaining % ≤80%) | A (0% ≤ substrate protein remaining % ≤80%)
O=C1CCN(N2Cc3cc(CN4CCN(c5cccc(F)c5)CC4)ccc3C2=O)C(=O)N1 [GT-06701, 1-(5-((4-(3-fluorophenyl)piperazin-1-yl)methyl)-1-oxoisoindolin-2-yl)dihydropyrimidine-2,4(1H,3H)-dione] | B (80%< substrate protein remaining % ≤100%) | B (80%< substrate protein remaining % ≤100%) | B (80%< substrate protein remaining % ≤100%) | A (0% ≤ substrate protein remaining % ≤80%) | B (80%< substrate protein remaining % ≤100%) | A (0% ≤ substrate protein remaining % ≤80%)
O=C1CCN(N2C(=O)c3ccc(CN4CCN(c5ccccc5)CC4)cc3C2=O)C(=O)N1 [GT-06719, 2-(2,4-dioxotetrahydropyrimidin-1(2H)-yl)-5-((4-phenylpiperazin-1-yl)methyl)isoindoline-1,3-dione] | B (80%< substrate protein remaining % ≤100%) | B (80%< substrate protein remaining % ≤100%) | B (80%< substrate protein remaining % ≤100%) | B (80%< substrate protein remaining % ≤100%) | A (0% ≤ substrate protein remaining % ≤80%) | B (80%< substrate protein remaining % ≤100%)
COc1ccccc1N1CCN(Cc2ccc3c(c2)C(=O)N(N2CCC(=O)NC2=O)C3=O)CC1 [GT-06720, 2-(2,4-dioxotetrahydropyrimidin-1(2H)-yl)-5-((4-(2-methoxyphenyl)piperazin-1-yl)methyl)isoindoline-1,3-dione] | B (80%< substrate protein remaining % ≤100%) | B (80%< substrate protein remaining % ≤100%) | B (80%< substrate protein remaining % ≤100%) | B (80%< substrate protein remaining % ≤100%) | A (0% ≤ substrate protein remaining % ≤80%) | B (80%< substrate protein remaining % ≤100%)
COc1cccc(N2CCN(Cc3ccc4c(c3)C(=O)N(N3CCC(=O)NC3=O)C4=O)CC2)c1 [GT-06721, 2-(2,4-dioxotetrahydropyrimidin-1(2H)-yl)-5-((4-(3-methoxyphenyl)piperazin-1-yl)methyl)isoindoline-1,3-dione] | B (80%< substrate protein remaining % ≤100%) | A (0% ≤ substrate protein remaining % ≤80%) | A (0% ≤ substrate protein remaining % ≤80%) | B (80%< substrate protein remaining % ≤100%) | A (0% ≤ substrate protein remaining % ≤80%) | B (80%< substrate protein remaining % ≤100%)
O=C1CCN(N2C(=O)c3ccc(CN4CCN(c5cccc(Br)c5)CC4)cc3C2=O)C(=O)N1 [GT-06722, 5-((4-(3-bromophenyl)piperazin-1-yl)methyl)-2-(2,4-dioxotetrahydropyrimidin-1(2H)-yl)isoindoline-1,3-dione] | A (0% ≤ substrate protein remaining % ≤80%) | A (0% ≤ substrate protein remaining % ≤80%) | B (80%< substrate protein remaining % ≤100%) | A (0% ≤ substrate protein remaining % ≤80%) | A (0% ≤ substrate protein remaining % ≤80%) | B (80%< substrate protein remaining % ≤100%)
O=C1CCN(N2C(=O)c3ccc(CN4CCN(c5cccc(F)c5)CC4)cc3C2=O)C(=O)N1 [GT-06724, 2-(2,4-dioxotetrahydropyrimidin-1(2H)-yl)-5-((4-(3-fluorophenyl)piperazin-1-yl)methyl)isoindoline-1,3-dione] | A (0% ≤ substrate protein remaining % ≤80%) | A (0% ≤ substrate protein remaining % ≤80%) | B (80%< substrate protein remaining % ≤100%) | B (80%< substrate protein remaining % ≤100%) | B (80%< substrate protein remaining % ≤100%) | B (80%< substrate protein remaining % ≤100%)
O=C1CCN(N2C(=O)c3ccc(CN4CCN(c5ccc(F)cc5)CC4)cc3C2=O)C(=O)N1 [GT-06725, 2-(2,4-dioxotetrahydropyrimidin-1(2H)-yl)-5-((4-(4-fluorophenyl)piperazin-1-yl)methyl)isoindoline-1,3-dione] | B (80%< substrate protein remaining % ≤100%) | A (0% ≤ substrate protein remaining % ≤80%) | B (80%< substrate protein remaining % ≤100%) | B (80%< substrate protein remaining % ≤100%) | B (80%< substrate protein remaining % ≤100%) | B (80%< substrate protein remaining % ≤100%)
O=C1CCN(N2C(=O)c3ccc(CN4CCN(c5ccccc5Cl)CC4)cc3C2=O)C(=O)N1 [GT-06726, 5-((4-(2-chlorophenyl)piperazin-1-yl)methyl)-2-(2,4-dioxotetrahydropyrimidin-1(2H)-yl)isoindoline-1,3-dione] | A (0% ≤ substrate protein remaining % ≤80%) | B (80%< substrate protein remaining % ≤100%) | A (0% ≤ substrate protein remaining % ≤80%) | A (0% ≤ substrate protein remaining % ≤80%) | A (0% ≤ substrate protein remaining % ≤80%) | B (80%< substrate protein remaining % ≤100%)
